Results as given in publication PMC11292009, “Mapping protein binding sites by photoreactive fragment pharmacophores” (Communications Chemistry, 2024).

How the values were obtained:
Type in all cases: binding
[1] = system: carbonic anhydrase II (CA); test: Intact protein MS photoaffinity labeling screen, carbonic anhydrase; conditions: intact protein MS after 10 min irradiation
Protocol: (§1) Using a plate-based format with one fragment per well, each fragment was incubated with the target proteins for 15 min to allow for the formation of non-covalent interactions. […] Finally, the results were directly analyzed from the plate using intact protein mass spectrometry by observing the mass additions that correspond to successful labeling (Fig. 2c, for labeling % values see Supplementary data). The library was first characterized against three benchmark proteins like carbonic anhydrase (CA), lysozyme (Lyo), and myoglobin (Myo).

STAT5B-NTD [2] = system: T1, STAT5B-NTD; test: Intact MS labeling screen, STAT5B-NTD conjugated with photocatalyst Ir-G2-PEG3-COOH (450 nm); conditions: 450 nm 10 min;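 note: 0.14 µL of 100 mM DMSO fragment stock added to the conjugate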
T1 construct: His-SUMO (N, cleaved yes); made in house; host or cells: E. coli BL21 RILP
Protocol: For the photocatalysis experiments, 1.4 µL photocatalyst (in 1.4 mM DMSO solution, 10 eq) was pre-incubated with 1.5 µL coupling reagent (0.75 µL, 5.6 mM EDC (20 eq)+0.75 µL 4.2 mM NHS and 1.5 µL 2.1 mM (15 eq) BOP for 30 min in dark. 30 µL STAT5B-NTD (in 7 µM concentration) was added and incubated further at room temperature overnight or at 37 °C for 1 h in dark. After addition of 0.14 µL PhP (in 100 mM DMSO) the solution was further incubated in dark for 1 h. Irradiation was carried out using 450 nm LED lamp (7.6Vx0A) for 10 min at 4 °C.
(§2) During the analysis, the column temperature was maintained at a constant 60 °C, and a sample volume of 3 µL was injected for each analysis. Data acquisition was conducted in positive ion mode within the m/z 100–2000 (mass-to-charge ratio) range. For the full protocol and spectra of the hits, see Supplementary Note 2.

lysozyme (Lyo) = test: Intact protein MS photoaffinity labeling screen, lysozyme; conditions: intact protein MS after 10 min irradiation
Protocol: as §1

STAT5B-NTD [3] = system: T1, STAT5B-NTD; test: Intact MS photoaffinity labeling screen, STAT5B-NTD (365 nm, UHPLC-MS); conditions: for experimental hit status STAT5B-NTD: 0/1 flag; for MS labeling percentage, STAT5B: STAT5B-NTD, 365 nm 10 min, no photocatalyst; for STAT5B-NTD (experimental hit status): hit flag 1/0, sheet PhP, photoaffinity labeling screen;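 for MS labeling percentage, STAT5B: 0.17 µL of 100 mM DMSO fragment stock added to the protein sample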
Protocol: STAT5B protein in 7 µM concentration in pH 7.4 PBS buffer was pre-incubated with 0.17 µL PhP (in 100 mM DMSO solution) for 1 h at room temperature in dark. Irradiation was carried out at 4 °C for 10 min using 365 nm UV lamp.
as §2

KRas^G12D = system: T2, KRas^G12D; test: Intact MS photoaffinity labeling screen, KRas G12D (302 nm, LCMS-TOF); conditions: for experimental hit status KRAS-G12D: 0/1 flag; for MS labeling percentage, KRas: KRas G12D, 302 nm 10 min; for KRAS-G12D (experimental hit status): hit flag 1/0, sheet PhP, photoaffinity labeling screen
T2 construct: purchased GSK/GenScript
Protocol: as §1
(§3) The PhP library was screened against BRD4-BD1 and KRas^G12D as follows. […] The probe plate was placed on ice. 15 μL of protein stock solution (1 μM BRD4-BD1 (GSK/GenScript) or KRas^G12D (GSK/GenScript) in PBS buffer) was dispensed into wells containing fragments. The plate was left on ice for 15 min for incubation, then irradiated at 302 nm for 10 min, and centrifuged (1000 rpm, 1 min) to remove any bubbles. […] The deconvoluted spectra were analyzed using R Studio software.

myoglobin (Myo) = test: Intact protein MS photoaffinity labeling screen, myoglobin; conditions: intact protein MS after 10 min irradiation
Protocol: as §1

BRD4-BD1 = system: T3, BRD4-BD1; test: Intact MS photoaffinity labeling screen, BRD4-BD1 (302 nm, LCMS-TOF); conditions: for experimental hit status BRD4-BD1: 0/1 flag; for MS labeling percentage, BRD4: BRD4-BD1, 302 nm 10 min; for BRD4-BD1 (experimental hit status): hit flag 1/0, sheet PhP, photoaffinity labeling screen
T3 construct: screened the PhP library against the first bromodomain of BRD4 (BRD4-BD1); purchased GSK/GenScript
Protocol: as §1, §3

CC1(CCC(=O)NC2CCCN(c3ncc[nH]c3=O)C2)N=N1 (centres unmarked) [PhP029, N1=NC1(C)CCC(=O)NC2CCCN(C2)c3ncc[nH]c3=O]
MS labeling percentage, CA [1]: 0% | MS labeling percentage, STAT5B+photocat (STAT5B-NTD [2]): 0.3% | MS labeling percentage, Lyo (lysozyme (Lyo)): 0% | experimental hit status STAT5B-NTD (STAT5B-NTD [3]): 0 | MS labeling percentage, STAT5B (STAT5B-NTD [3]): 0% | experimental hit status KRAS-G12D (KRas^G12D): 0 | MS labeling percentage, KRas (KRas^G12D): 0% | MS labeling percentage, Myo (myoglobin (Myo)): 0.1% | experimental hit status BRD4-BD1 (BRD4-BD1): 0 | MS labeling percentage, BRD4 (BRD4-BD1): 0.2%

Cc1ccc2[nH]c(CNC(=O)CCC3(C)N=N3)nc2c1 [PhP030, c1cc(C)cc(c12)nc([nH]2)CNC(=O)CCC3(C)N=N3]
MS labeling percentage, CA [1]: 0.7% | MS labeling percentage, STAT5B+photocat (STAT5B-NTD [2]): 0.7% | MS labeling percentage, Lyo (lysozyme (Lyo)): 0% | experimental hit status STAT5B-NTD (STAT5B-NTD [3]): 0 | MS labeling percentage, STAT5B (STAT5B-NTD [3]): 0% | experimental hit status KRAS-G12D (KRas^G12D): 0 | MS labeling percentage, KRas (KRas^G12D): 1.4% | MS labeling percentage, Myo (myoglobin (Myo)): 0.4% | experimental hit status BRD4-BD1 (BRD4-BD1): 0 | MS labeling percentage, BRD4 (BRD4-BD1): 1.2%

CC1(CCC(=O)NCCc2nc3ccccc3[nH]2)N=N1 [PhP031, N1=NC1(C)CCC(=O)NCCc(n2)[nH]c(c23)cccc3]
MS labeling percentage, CA [1]: 0.6% | MS labeling percentage, STAT5B+photocat (STAT5B-NTD [2]): 0.5% | MS labeling percentage, Lyo (lysozyme (Lyo)): 0% | experimental hit status STAT5B-NTD (STAT5B-NTD [3]): 0 | MS labeling percentage, STAT5B (STAT5B-NTD [3]): 1% | experimental hit status KRAS-G12D (KRas^G12D): 0 | MS labeling percentage, KRas (KRas^G12D): 0.4% | MS labeling percentage, Myo (myoglobin (Myo)): 0.3% | experimental hit status BRD4-BD1 (BRD4-BD1): 0 | MS labeling percentage, BRD4 (BRD4-BD1): 0.8%

CCC(NC(=O)CCC1(C)N=N1)c1ccccc1OC (centres unmarked) [PhP032, N1=NC1(C)CCC(=O)NC(CC)c2ccccc2OC]
MS labeling percentage, CA [1]: 0.2% | MS labeling percentage, STAT5B+photocat (STAT5B-NTD [2]): 1.9% | MS labeling percentage, Lyo (lysozyme (Lyo)): 0% | experimental hit status STAT5B-NTD (STAT5B-NTD [3]): 0 | MS labeling percentage, STAT5B (STAT5B-NTD [3]): 2.9% | experimental hit status KRAS-G12D (KRas^G12D): 0 | MS labeling percentage, KRas (KRas^G12D): 0% | MS labeling percentage, Myo (myoglobin (Myo)): 0.3% | experimental hit status BRD4-BD1 (BRD4-BD1): 0 | MS labeling percentage, BRD4 (BRD4-BD1): 0.3%

CC1(CCC(=O)NCc2ccc(-n3ccnc3)cc2)N=N1 [PhP033, N1=NC1(C)CCC(=O)NCc2ccc(cc2)-n3ccnc3]
MS labeling percentage, CA [1]: 0.5% | MS labeling percentage, STAT5B+photocat (STAT5B-NTD [2]): 0.3% | MS labeling percentage, Lyo (lysozyme (Lyo)): 0% | experimental hit status STAT5B-NTD (STAT5B-NTD [3]): 0 | MS labeling percentage, STAT5B (STAT5B-NTD [3]): 1% | experimental hit status KRAS-G12D (KRas^G12D): 0 | MS labeling percentage, KRas (KRas^G12D): 0.5% | MS labeling percentage, Myo (myoglobin (Myo)): 0.3% | experimental hit status BRD4-BD1 (BRD4-BD1): 0 | MS labeling percentage, BRD4 (BRD4-BD1): 1.1%

COC(=O)[C@@H](Cc1c[nH]c2ccccc12)NC(=O)CCC1(C)N=N1 [PhP036, N1=NC1(C)CCC(=O)N[C@@H](C(=O)OC)Cc(c[nH]2)c(c23)cccc3]
MS labeling percentage, CA [1]: 0.2% | MS labeling percentage, STAT5B+photocat (STAT5B-NTD [2]): 5.4% | MS labeling percentage, Lyo (lysozyme (Lyo)): 0.4% | experimental hit status STAT5B-NTD (STAT5B-NTD [3]): 0 | MS labeling percentage, STAT5B (STAT5B-NTD [3]): 2% | experimental hit status KRAS-G12D (KRas^G12D): 0 | MS labeling percentage, KRas (KRas^G12D): 1% | MS labeling percentage, Myo (myoglobin (Myo)): 0% | experimental hit status BRD4-BD1 (BRD4-BD1): 0 | MS labeling percentage, BRD4 (BRD4-BD1): 0.6%

COc1ccc(CNC(=O)CCC2(C)N=N2)cn1 [PhP039, COc1ccc(cn1)CNC(=O)CCC2(C)N=N2]
MS labeling percentage, CA [1]: 0.5% | MS labeling percentage, STAT5B+photocat (STAT5B-NTD [2]): 1.3% | MS labeling percentage, Lyo (lysozyme (Lyo)): 0% | MS labeling percentage, STAT5B (STAT5B-NTD [3]): 1% | STAT5B-NTD (experimental hit status) (STAT5B-NTD [3]): 0 | MS labeling percentage, KRas (KRas^G12D): 0.2% | KRAS-G12D (experimental hit status) (KRas^G12D): 0 | MS labeling percentage, Myo (myoglobin (Myo)): 0.3% | MS labeling percentage, BRD4 (BRD4-BD1): 0.5% | BRD4-BD1 (experimental hit status) (BRD4-BD1): 0

Cc1nc(NC(=O)CCC2(C)N=N2)c2cnn(-c3ccc(F)cc3)c2n1 [PhP041, c1cc(F)ccc1-n(nc2)c(c23)nc(C)nc3NC(=O)CCC4(C)N=N4]
MS labeling percentage, CA [1]: 0.3% | MS labeling percentage, STAT5B+photocat (STAT5B-NTD [2]): 10.6% | MS labeling percentage, Lyo (lysozyme (Lyo)): 0% | MS labeling percentage, STAT5B (STAT5B-NTD [3]): 0% | STAT5B-NTD (experimental hit status) (STAT5B-NTD [3]): 0 | MS labeling percentage, KRas (KRas^G12D): 0.3% | KRAS-G12D (experimental hit status) (KRas^G12D): 0 | MS labeling percentage, Myo (myoglobin (Myo)): 0% | MS labeling percentage, BRD4 (BRD4-BD1): 0.2% | BRD4-BD1 (experimental hit status) (BRD4-BD1): 0

CC1(CCC(=O)Nc2cccc(-n3cnnn3)c2)N=N1 [PhP042, N1=NC1(C)CCC(=O)Nc2cccc(c2)-n3cnnn3]
MS labeling percentage, CA [1]: 0.9% | MS labeling percentage, STAT5B+photocat (STAT5B-NTD [2]): 17.8% | MS labeling percentage, Lyo (lysozyme (Lyo)): 0% | MS labeling percentage, STAT5B (STAT5B-NTD [3]): 2% | STAT5B-NTD (experimental hit status) (STAT5B-NTD [3]): 0 | MS labeling percentage, KRas (KRas^G12D): 0.5% | KRAS-G12D (experimental hit status) (KRas^G12D): 0 | MS labeling percentage, Myo (myoglobin (Myo)): 0.2% | MS labeling percentage, BRD4 (BRD4-BD1): 1% | BRD4-BD1 (experimental hit status) (BRD4-BD1): 0

Cn1ccnc1-c1cc(NC(=O)CCC2(C)N=N2)n[nH]1 [PhP043, Cn1ccnc1-c2cc(n[nH]2)NC(=O)CCC3(C)N=N3]
MS labeling percentage, CA [1]: 0.5% | MS labeling percentage, STAT5B+photocat (STAT5B-NTD [2]): 0% | MS labeling percentage, Lyo (lysozyme (Lyo)): 0% | MS labeling percentage, STAT5B (STAT5B-NTD [3]): 1% | STAT5B-NTD (experimental hit status) (STAT5B-NTD [3]): 0 | MS labeling percentage, KRas (KRas^G12D): 0.3% | KRAS-G12D (experimental hit status) (KRas^G12D): 0 | MS labeling percentage, Myo (myoglobin (Myo)): 0.1% | MS labeling percentage, BRD4 (BRD4-BD1): 0.8% | BRD4-BD1 (experimental hit status) (BRD4-BD1): 0

COc1ccccc1OCCNC(=O)CCC1(C)N=N1 [PhP044, COc1ccccc1OCCNC(=O)CCC2(C)N=N2]
MS labeling percentage, CA [1]: 0.2% | MS labeling percentage, STAT5B+photocat (STAT5B-NTD [2]): 1.4% | MS labeling percentage, Lyo (lysozyme (Lyo)): 0% | MS labeling percentage, STAT5B (STAT5B-NTD [3]): 1% | STAT5B-NTD (experimental hit status) (STAT5B-NTD [3]): 0 | MS labeling percentage, KRas (KRas^G12D): 0% | KRAS-G12D (experimental hit status) (KRas^G12D): 0 | MS labeling percentage, Myo (myoglobin (Myo)): 0% | MS labeling percentage, BRD4 (BRD4-BD1): 0.2% | BRD4-BD1 (experimental hit status) (BRD4-BD1): 0
